This is an account of results in patent US20100278687A1, “R[…] GYPSUM BOARD USING GASEOUS CHLORINE DIOXIDE” (SABRE INTELLECTUAL PROPERTY HOLDINGS COMPANY, LLC., priority 2009, published 2010).

The conditions of data set [1]: after fumigation, visual.
Method: The corrosivity potential of ClO2 on metals and bleaching potential of ClO2 on household carpeting were evaluated through pre- and post treatment visual observations made throughout the structure.
Corrosivity potential was assessed by observation of typical metal items present within the structure (e.g. screws, door hinges, HVAC system components, etc.). […] Each piece of copper was “scuffed” clean prior to fumigation to ensure that any changes in the metal due to ClO2 exposure would be readily recognizable. Photographs were taken of the copper pipe pieces before and after treatment to document visual observations made.
For data set [2] the following is noted: after fumigation, side-by-side with untreated carpet.
Method: Bleaching potential of ClO2 was assessed by observation of carpet color and brightness throughout the structure both pre- and post-treatment. A piece of carpeting was also removed from a closet within the structure prior to fumigation and used for direct visual comparison with treated carpet following completion of the process.
The nature of data set [3]: Olfactory observation of reduced-sulfur odors before and after treatment. Particulars: Sabre personnel and independent observers; faint swimming pool like scent remained. The text has this:
Subjective Odor Elimination—Reduced-sulfur compounds odors are extremely noxious and can be detected by the human olfactory (i.e. odor) sense at levels which are at or below the detection limits of sophisticated analytical instruments. As such, the olfactory senses of both Sabre personnel and independent observers were employed both pre- and post-treatment to gauge the effectiveness of ClO2 in ridding the test structure of reduced-sulfur compound odors.
Odor levels emanating from within the structure were observed both pre- and post-treatment for the “putrid” characteristic commonly associated with reduced-sulfur gases such as hydrogen sulfide, carbonyl sulfide and carbon disulfide that have been definitively shown by an FDOH study as being released from Chinese wallboard.

In data set [4] the test system is Bacillus atrophaeus spores. The data set is described as follows: BI spore strip viability test, strips inside wall cavities during ClO2 fumigation. The class given is cell-based. To be noted: Bacillus atrophaeus spore strips in wall cavities; incubated seven days; both positive controls grew. The text has this: BI Spore Strips—BI spore strips, each containing an approximate 2.5×103 titer of B. atrophaeus spores, were placed within wall cavities of the structure at the same 20 locations where wallboard samples had been collected, prior to insertion of the 2-inch expansion plugs. The B. atrophaeus species was selected due to its historical use as a biological indicator for ClO2 fumigations
Spore strips are thin cellulose pads that have been impregnated with a defined titer of bacterial spores. Each spore strip is encased in a Tyvek® pouch to allow for effective penetration of fumigant gas yet protect the strip from contamination by external sources. The BIs were obtained from SGM Biotech Inc., 10 Evergreen Drive, Suite E, Bozeman, Mont. (Lot #ACD-113e). All BIs were supplied from the same product batch in order to ensure uniformity in spore titer. Relevant production QA/QC data for the specific lot number have been kept on file for future reference.
All BIs were retrieved promptly following fumigation and sent to Sabre's Slingerlands, N.Y. laboratory facility for analysis. Each spore strip was aseptically placed in a growth media tube containing 15 milliliters of trypticase soy broth (BD Diagnostics product #221823, Lot # 7337460) and incubated at 37 degrees Centigrade. Spore strips were evaluated daily for the presence or absence of indicator organism growth for a total of seven days. […]

Data set [5] has as its system SRBs and sulfur bacteria. The experiment in a line: Chlorine dioxide fumigation of Chinese wallboard, SRB kill. The format is cell-based. Particulars: 65% RH and 65° F., enclosed structure. As for the experimental part: Two square ([…]) samples of ⅝ inch Chinese wall board are collected from the structure that reported odor issues from different areas of the structure. […] The samples are split into four 25 cm×25 cm squares with the exposed ends of the sheetrock taped and painted with the same paint used within the structure. Two squares from each sample are placed into a chlorine dioxide fumigation chamber and fumigated with chlorine dioxide to a CT value of 9000 ppmv hours at 65% RH and 65° F. The other two squares from each sample are held in sealed bags as test blanks.
Upon completion of the test, each of the samples can be sampled as follows: Each core sample is homogenized in 10 ml of an anaerobic SRB broth, and 1 ml of the broth is transferred to 10 ml of broth in an anaerobic container and diluted serially out to a 104th dilution. The broth bottles are incubated at 25° C. for 21 days. Each day growth is recorded, and a lab blank negative control is performed on the initial broth.

Data set [6] relates to sulfate-reducing bacteria (SRBs). The experiment in a line: SRB growth test (presence/absence) on unpainted wallboard paper before and after ClO2 fumigation of a house. The format is cell-based. To be noted: 20 wall and ceiling cavity locations, 12 of 20 positive before treatment; 13 hours, CT 5336-9727 ppmv-hours, about 45-52% RH. As for the experimental part:
SRBs—The efficacy of ClO2 gas in eliminating SRBs from Chinese wallboard material was evaluated by collecting samples of unpainted wallboard paper located inside wall cavities of the home prior to, and immediately after, ClO2 exposure. Unpainted wallboard paper from wall cavities was chosen for SRB testing because preliminary laboratory work done at Sabre's Slingerlands, N.Y. laboratory facility had shown SRBs to be concentrated in this media.
Pre-treatment wallboard paper samples were collected by drilling a two-inch circular core at selected wall and ceiling locations. To avoid damaging vapor barriers present within the home, samples were not collected from any bathroom or laundry room locations. Sample locations were selected to be representative wall cavities within the structure most likely to contain conditions conducive to SRB growth. In total, 20 sample locations were selected. Nine were wall cores and eleven were ceiling cores.
The wallboard holes created through SRB sampling were each sealed using a two-inch rubber expansion plug in order to ensure that ClO2 gas would not penetrate into wall cavities as a consequence of sampling activities.
Post-treatment wallboard paper samples were collected by drilling an identical two-inch circular core approximately one inch away from each of the 20 pre-treatment sample locations. […]
Background: The SRB assay estimates cell density from bound dye.

In the case of `[O][Cl+][O-]` [ClO2, chlorine dioxide], the “Corrosive effect on common metal items in the structure” value in data set [1] is “no corrosive effect was visible”. Moreover, in data set [1] (some pieces had a gold-like tint), the “Changes in scuffed copper pipe pieces” value is on record as “no changes were observed”. Moreover, the “Bleaching effect on carpet color and brightness” value in data set [2] is reported as “no meaningful bleaching effect”. Also, the “Reduced-sulfur gas odors after fumigation” value in data set [3] was “completely eliminated”. The “Surrogate test organism growth on BI spore strips after ClO2 treatment” value in data set [4] is listed as “negative for surrogate test organism growth”. Moreover, in data set [5], the “CT of fumigation that eliminates growth of SRBs and sulfur bacteria and oxidizes reactive sulfides” value is “about 9000 ppmv hours”. Besides, the “SRB growth after ClO2 treatment” value in data set [6] was “negative for SRB growth”.
